These results are taken from ChEMBL document CHEMBL5346937, “Repurposing 1,2,4-oxadiazoles as SARS-CoV-2 PLpro inhibitors and investigation of their possible viral entry blockade potential” (Eur J Med Chem, 2023).

In one data set the test system is WI-38. In words: (§1) Cytotoxicity against human WI-38 cells assessed as reduction in cell viability incubated for 72 hrs by MTT assay. The class given is toxicity, cell-based. As to conditions: wi-38, 72 h. (In general: Tetrazolium dyes change colour on reduction, which living cells bring about.)
The next data set deals with A549. Nature of the data set: Cytotoxicity against human […] A549 cells assessed as reduction in cell viability incubated for 72 hrs by MTT assay. Type of data set: functional. As to conditions: for CC50: Homo sapiens, A549.
Data set [1] addresses Spike glycoprotein/Angiotensin-converting enzyme 2 (Severe acute respiratory syndrome coronavirus 2) (UniProt Q9BYF1+P0DTC2). Nature of the data set: Inhibition of SARS-CoV-2 spike protein RBD- human ACE2 interaction at 10 uM pretreated with SARS-CoV-2 spike RBD for 2 hrs followed by ACE2 addition and measured after 2 hrs by […] based ELISA analysis relative to control. The class given is protein assay. As to conditions: time 4.0 hrs.

In data set [2] the target is Replicase polyprotein 1ab (Severe acute respiratory syndrome coronavirus 2) (UniProt P0DTD1). Nature of the data set: Inhibition of SARS-CoV-2 PLpro at 10 uM using Arg-Leu-Arg-Gly-Gly-AMC as substrate preincubated for 5 mins followed by substrate addition measured after 6 mins by fluorescence based assay relative to control. As to conditions: time 11.0 min.
The test system of a further data set is SARS-CoV-2. Nature of the data set: Antiviral activity against SARS-CoV-2 assessed as inhibition of viral growth. The conditions noted are these: Severe acute respiratory syndrome coronavirus 2. The class given is functional, organism-based.
Data set [3] can be described thus: as §1. Type of data set: toxicity, cell-based. The conditions noted are these: WI-38 cells.
For data set [4], the target named is Spike glycoprotein/Angiotensin-converting enzyme 2 (Severe acute respiratory syndrome coronavirus 2, UniProt P0DTC2+Q9BYF1). Nature of the data set: Inhibition of SARS-CoV-2 spike protein RBD- human ACE2 interaction pretreated with SARS-CoV-2 spike RBD for 2 hrs followed by ACE2 addition and measured after 2 hrs by […] based ELISA analysis. Type of data set: protein assay.
Sequence of Spike glycoprotein/Angiotensin-converting enzyme 2 (Q9BYF1 18-805 limits assumed, other chains not shown): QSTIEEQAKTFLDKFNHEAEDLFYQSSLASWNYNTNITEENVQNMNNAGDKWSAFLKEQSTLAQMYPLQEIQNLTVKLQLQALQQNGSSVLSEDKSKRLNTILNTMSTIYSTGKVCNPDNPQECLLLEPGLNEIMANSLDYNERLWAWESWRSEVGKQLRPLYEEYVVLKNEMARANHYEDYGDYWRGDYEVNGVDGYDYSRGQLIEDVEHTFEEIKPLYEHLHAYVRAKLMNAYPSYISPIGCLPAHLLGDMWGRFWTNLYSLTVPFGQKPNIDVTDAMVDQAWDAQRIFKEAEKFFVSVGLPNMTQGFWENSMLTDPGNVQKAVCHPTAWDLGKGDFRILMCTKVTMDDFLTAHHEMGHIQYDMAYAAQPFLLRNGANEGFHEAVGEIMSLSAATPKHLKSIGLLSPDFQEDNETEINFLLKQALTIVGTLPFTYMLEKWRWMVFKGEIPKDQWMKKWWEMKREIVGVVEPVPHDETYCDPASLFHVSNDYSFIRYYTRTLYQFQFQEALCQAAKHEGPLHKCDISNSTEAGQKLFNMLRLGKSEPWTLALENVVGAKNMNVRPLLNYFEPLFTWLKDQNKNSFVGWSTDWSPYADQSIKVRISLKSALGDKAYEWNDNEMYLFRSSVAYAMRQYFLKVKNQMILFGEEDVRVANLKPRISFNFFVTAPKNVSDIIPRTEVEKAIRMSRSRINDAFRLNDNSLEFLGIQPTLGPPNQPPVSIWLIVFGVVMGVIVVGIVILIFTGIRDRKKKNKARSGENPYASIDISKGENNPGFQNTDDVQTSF

A short description of data set [5]: Octanol/water partition coefficient, logP of the compound by HPLC analysis. The class given is physicochemical.
Data set [6] addresses Replicase polyprotein 1ab (Severe acute respiratory syndrome coronavirus 2, UniProt P0DTD1). Nature of the data set: Inhibition of SARS-CoV-2 PLpro using Arg-Leu-Arg-Gly-Gly-AMC as substrate preincubated for 5 mins followed by substrate addition measured after 6 mins by fluorescence based assay.

Broadly, the CC50 is the concentration that lowers cell viability or growth by half. Usually inhibition stands for the drop in the measured response relative to a control, in per cent. For the molecule `O=CNc1ccccc1-c1noc(-c2ccccc2O)n1`, the values for the CC50 in the data set on WI-38 and in the data set with A549 were 40.6 µM and 31.4 µM, respectively. Further, the EC100 in the data set with WI-38 came to 8.116 µM; in the data set with A549, 15.708 µM. Also, the inhibition in [1] stood at 44.3%; in data set [2], 35.1%.

For `O=C(O)CN1C(=O)COc2ccccc2-c2nc(no2)-c2ccccc21`, the CC50 is 23.8 µM with WI-38 and 19.6 µM in the data set with A549. Also, the EC100 in the data set with WI-38 turned out to be 5.727 µM; with A549, 3.695 µM. The inhibition in data set [1] turned out to be 10.6%; in [2], 5.9%.

For `CCOC(=O)CN1C(=O)COc2ccccc2-c2nc(no2)-c2ccccc21`, the CC50 came to 31.6 µM in the data set on WI-38 and 14.2 µM in the data set on A549. Also, the EC100 worked out at 6.313 µM with WI-38 and 7.127 µM in the data set on A549. Further, the inhibition in [1] was 15.6%; in data set [2], 18.1%.

As to `CCN(CCO)CCCC(C)Nc1ccnc2cc(Cl)ccc12` (configuration not stated) [HYDROXYCHLOROQUINE], the IC50 with SARS-CoV-2 is 0.72 µM.

On to `Cc1ncc(COP(=O)([O-])O)c(/C=N/c2ccccc2-c2noc(-c3ccccc3O)n2)c1O.[Na+]`, for which the values for the CC50 in the data set on WI-38 and with A549 were 3.21 µM and 1.03 µM, respectively. The EC100 with WI-38 was 4.956 µM; in the data set on A549 it was 2.718 µM. Moreover, the inhibition turned out to be 26.1% in data set [1] and 13.9% in data set [2].

Turning to `CC(=O)Oc1ccccc1-c1nc(-c2ccccc2N(C(C)=O)C(C)=O)no1`, the EC100 is 0.641 µM in the data set with WI-38 and 0.207 µM in the data set on A549. For the same molecule, the CC50 in the data set on A549 worked out at 20.5 µM. In addition, the inhibition in [1] was determined as 44.4%; in data set [2], 17.1%.

Consider `Nc1ccccc1-c1noc(-c2ccccc2)n1`, for which the CC50 at 72 h in [3] came out at 36.5 µM. The EC100 came to 7.299 µM in the data set on WI-38 and 5.886 µM in the data set on A549. Also, in the data set with A549, the CC50 was determined as 28.7 µM. For the same molecule, the inhibition in data set [1] came out at 23.3%; in data set [2], 20.8%.

By logP is commonly meant the decadic logarithm of the partition coefficient of the neutral form, usually between octanol and water. A high value points to higher lipophilicity. As to `Nc1ccccc1-c1noc(-c2ccncc2)n1`, the IC50 in data set [4] (read-out: IC50) is 8.67 µM; in data set [4] (read-out: pIC50 (converted)), 8.69 µM; in [6] (read-out: IC50), 7.2 µM; in [6] (read-out: pIC50 (converted)), 7.21 µM. Also, the CC50 in the data set on WI-38 was 51.8 µM; in the data set on A549, 45.8 µM. Further, the EC100 came to 10.356 µM in the data set with WI-38 and 8.352 µM in the data set with A549. The logP in data set [5] is 3.8. Besides, the values for the inhibition in data set [1] and in [2] were 65.6% and 58.6%, respectively.

Regarding `CCN(CC)CCCC(C)Nc1ccnc2cc(Cl)ccc12` (configuration not stated) [CHLOROQUINE], the IC50 with SARS-CoV-2 turned out to be 1.13 µM.

As for `Nc1ccccc1-c1noc(-c2ccccc2N)n1`, the figures for the CC50 in the data set on WI-38 and in the data set with A549 were 48.7 µM and 29 µM, respectively. Also, the EC100 in the data set on WI-38 is 9.738 µM; with A549 it was 12.25 µM. Moreover, the inhibition in data set [1] came to 26.1%; in [2], 16.2%.

In the case of `[N-]=[N+]=Nc1ccccc1-c1noc(-c2ccccc2O)n1`, the figures for the CC50 with WI-38 and in the data set on A549 were 38.5 µM and 28.2 µM, respectively. The EC100 in the data set with WI-38 was found to be 7.701 µM; in the data set with A549, 6.707 µM. The inhibition in data set [2] turned out to be 1.1%.

In the case of `Oc1ccccc1-c1noc(-c2ccccc2O)n1`, in the data set on WI-38, the half-maximal cytotoxic concentration (CC50) worked out at 26 µM and the EC100 is 5.208 µM. In the data set on A549, the EC100 amounted to 3.36 µM and the cytotoxic concentration (CC50) worked out at 19.5 µM. The molecule further returned an inhibition in data set [2] of 11.7%.

Regarding `Nc1ccccc1-c1nc(-c2ccc(C(F)(F)F)cc2)no1`, in the data set on WI-38, the cytotoxic concentration (CC50) was found to be 5.78 µM and the EC100 stood at 1.156 µM. Also, in the data set on A549, the EC100 is 0.373 µM and the CC50 turned out to be 2.37 µM. Moreover, the inhibition in data set [2] stood at 5%.

Regarding `Nc1ccccc1-c1nc(-c2ccccc2)no1`, the figures for the CC50 in the data set on WI-38 and in the data set with A549 were 57.2 µM and 24.7 µM, respectively. The figures for the EC100 in the data set with WI-38 and in the data set with A549 were 19.059 µM and 11.681 µM, respectively. Further, the inhibition was 31.4% in [1] and 21.1% in data set [2].

On to `Cc1ncc(COP(=O)([O-])O)c(/C=N/c2ccccc2-c2noc(-c3ccccc3)n2)c1O.[Na+]`, for which the CC50 with WI-38 was 10.1 µM; in the data set on A549, 6.46 µM. For the same molecule, the EC100 stood at 2.03 µM in the data set on WI-38 and 0.655 µM with A549. In addition, the inhibition in data set [1] amounted to 36.7%; in data set [2] it was 22.5%.

Turning to `Nc1ccccc1-c1noc(-c2ccccc2O)n1`, the 50% cytotoxic concentration (CC50) turned out to be 32.4 µM in the data set with WI-38 and 22 µM with A549. Also, the EC100 is 6.474 µM in the data set with WI-38 and 4.114 µM in the data set with A549. For the same molecule, the values for the inhibition in data set [1] and in data set [2] were 18.1% and 13.6%, respectively.
